Test results from US9765060B2 (Gilead Sciences, Inc., priority 2014, dated 2017).
Read-outs that look alike come from different tables or passages of the source.

Molecular target: PI3K isoform δ (Homo sapiens (Human), UniProt O00329)
Experiment: TR-FRET assay of enzymatic activity of class I PI3K isoforms
[1] = read-out: IC50 (nM) for PI3K isoform δ (Table 3), TR-FRET, 2× Km ATP, 2 μM PIP2, incubated for 30 minutes at 25° C.

Chain of PI3K isoform δ (O00329 whole entry, canonical isoform): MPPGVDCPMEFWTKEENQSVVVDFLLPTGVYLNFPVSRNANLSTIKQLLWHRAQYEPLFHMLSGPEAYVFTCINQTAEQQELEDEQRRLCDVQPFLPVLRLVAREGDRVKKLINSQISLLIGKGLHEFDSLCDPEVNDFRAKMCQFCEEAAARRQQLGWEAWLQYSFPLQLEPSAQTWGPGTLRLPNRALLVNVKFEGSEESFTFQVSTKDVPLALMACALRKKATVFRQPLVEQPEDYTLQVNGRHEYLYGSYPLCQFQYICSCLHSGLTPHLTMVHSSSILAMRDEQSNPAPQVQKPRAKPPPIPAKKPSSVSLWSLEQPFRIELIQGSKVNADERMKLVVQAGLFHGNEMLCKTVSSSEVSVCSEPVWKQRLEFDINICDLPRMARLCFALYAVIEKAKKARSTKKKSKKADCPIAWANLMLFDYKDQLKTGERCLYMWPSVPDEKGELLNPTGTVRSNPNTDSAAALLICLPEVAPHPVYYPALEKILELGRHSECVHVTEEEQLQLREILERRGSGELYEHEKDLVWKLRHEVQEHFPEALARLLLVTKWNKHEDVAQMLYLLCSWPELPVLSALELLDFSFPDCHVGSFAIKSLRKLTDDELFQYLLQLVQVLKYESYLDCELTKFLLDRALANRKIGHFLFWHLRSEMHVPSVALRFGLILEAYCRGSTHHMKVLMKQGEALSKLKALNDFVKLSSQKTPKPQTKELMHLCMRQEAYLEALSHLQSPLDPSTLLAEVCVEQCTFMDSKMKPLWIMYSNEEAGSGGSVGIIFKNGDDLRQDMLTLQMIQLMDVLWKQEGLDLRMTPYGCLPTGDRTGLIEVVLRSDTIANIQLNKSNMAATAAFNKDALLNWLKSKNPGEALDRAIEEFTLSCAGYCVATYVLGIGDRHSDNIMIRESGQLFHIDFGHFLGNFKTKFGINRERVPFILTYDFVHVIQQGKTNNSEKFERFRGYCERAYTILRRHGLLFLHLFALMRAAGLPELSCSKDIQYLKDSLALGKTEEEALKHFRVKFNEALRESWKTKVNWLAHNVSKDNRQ
Chain of PI3K isoform δ (P27986 whole entry partner, canonical isoform): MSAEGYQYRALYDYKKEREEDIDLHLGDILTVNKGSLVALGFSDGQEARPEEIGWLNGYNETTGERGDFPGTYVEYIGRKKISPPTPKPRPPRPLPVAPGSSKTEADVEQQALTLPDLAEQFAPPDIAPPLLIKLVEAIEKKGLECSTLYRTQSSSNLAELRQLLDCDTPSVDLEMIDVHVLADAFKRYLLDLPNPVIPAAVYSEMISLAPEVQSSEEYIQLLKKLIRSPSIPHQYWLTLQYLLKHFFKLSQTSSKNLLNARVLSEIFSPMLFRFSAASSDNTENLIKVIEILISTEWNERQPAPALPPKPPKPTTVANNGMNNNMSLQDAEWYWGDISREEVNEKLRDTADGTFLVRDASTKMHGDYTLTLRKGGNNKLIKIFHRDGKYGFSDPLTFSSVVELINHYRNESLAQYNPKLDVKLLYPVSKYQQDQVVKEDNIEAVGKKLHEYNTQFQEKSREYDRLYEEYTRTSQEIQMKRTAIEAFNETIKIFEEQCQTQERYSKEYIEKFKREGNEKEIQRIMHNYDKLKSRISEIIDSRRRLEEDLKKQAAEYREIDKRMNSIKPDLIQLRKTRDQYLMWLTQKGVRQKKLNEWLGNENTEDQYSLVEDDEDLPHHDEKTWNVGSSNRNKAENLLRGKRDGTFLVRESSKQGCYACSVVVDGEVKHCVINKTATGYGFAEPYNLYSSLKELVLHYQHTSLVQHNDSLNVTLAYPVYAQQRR
Source text: TR-FRET monitored the formation of 3,4,5-inositol triphosphate molecule that competed with fluorescently labeled PIP3 for binding to the GRP-1 pleckstrin homology domain protein. […] Class I PI3K isoforms were expressed and purified as heterodimeric recombinant proteins. All assay reagents and buffers for the TR-FRET assay were purchased from Millipore.

| Compound | IC50 [1] [nM] | also measured |
| --- | --- | --- |
| N#Cc1c(N)nc(N)nc1N1CCC[C@H]1c1nc2cccc(CCCC(=O)O)c2c(=O)n1-c1ccccc1 [Compound 70, (S)-4-(2-(1-(2,6-diamino-5-cyanopyrimidin-4-yl)pyrrolidin-2-yl)-4-oxo-3-phenyl-3,4-dihydroquinazolin-5-yl)butanoic acid] | 3 | – |
| C[C@H](Nc1nc(N)nc(N)c1C#N)c1nc2cccc(CCCC(=O)O)c2c(=O)n1-c1cc(F)cc(F)c1 [Compound 71, (S)-4-(2-(1-((2,6-diamino-5-cyanopyrimidin-4-yl)amino)ethyl)-3-(3,5-difluorophenyl)-4-oxo-3,4-dihydroquinazolin-5-yl)butanoic acid] | 2 | – |
| CS(=O)(=O)c1cccc2nc([C@@H]3CCCN3c3nc(N)nc(N)c3C#N)n(-c3cccc(F)c3)c(=O)c12 [Compound 72, (S)-2,4-diamino-6-(2-(3-(3-fluorophenyl)-5-(methylsulfonyl)-4-oxo-3,4-dihydroquinazolin-2-yl)pyrrolidin-1-yl)pyrimidine-5-carbonitrile] | 4 | – |
| CS(=O)(=O)c1cccc2nc([C@@H]3CCCN3c3nc(N)nc(N)c3C#N)n(-c3c(F)cccc3F)c(=O)c12 [Compound 75, (S)-2,4-diamino-6-(2-(3-(2,6-difluorophenyl)-5-(methylsulfonyl)-4-oxo-3,4-dihydroquinazolin-2-yl)pyrrolidin-1-yl)pyrimidine-5-carbonitrile] | 1.2 | – |
| C[C@H](Nc1nc(N)nc(N)c1C#N)c1nc2cccc(S(=O)(=O)c3ccccc3)c2c(=O)n1-c1cccc(F)c1 [Compound 76, (S)-2,4-diamino-6-((1-(3-(3-fluorophenyl)-4-oxo-5-(phenylsulfonyl)-3,4-dihydroquinazolin-2-yl)ethyl)amino)pyrimidine-5-carbonitrile] | 1.3 | – |
| N#Cc1c(N)nc(N)nc1N1CCC[C@H]1c1nc2cccc(S(=O)(=O)c3ccccc3)c2c(=O)n1-c1cccc(F)c1 [Compound 77] | – | IC50: 2 nM |
| C[C@H](Nc1nc(N)nc(N)c1C#N)c1nc2cccc(S(=O)(=O)CCO)c2c(=O)n1-c1cccc(F)c1 [Compound 78, (S)-2,4-diamino-6-((1-(3-(3-fluorophenyl)-5-((2-hydroxyethyl)sulfonyl)-4-oxo-3,4-dihydroquinazolin-2-yl)ethyl)amino)pyrimidine-5-carbonitrile] | 9 | – |
| C[C@H](Nc1nc(N)nc(N)c1C#N)c1nc2cccc(SCCO)c2c(=O)n1-c1cccc(F)c1 [Compound 79, (S)-2,4-diamino-6-((1-(3-(3-fluorophenyl)-5-((2-hydroxyethyl)thio)-4-oxo-3,4-dihydroquinazolin-2-yl)ethyl)amino)pyrimidine-5-carbonitrile] | 51 | – |
| C[C@H](Nc1nc(N)nc(N)c1C#N)c1nc2cccc(S(=O)(=O)C3CCCC3)c2c(=O)n1-c1cccc(F)c1 [Compound 80, (S)-2,4-diamino-6-((1-(5-(cyclopentylsulfonyl)-3-(3-fluorophenyl)-4-oxo-3,4-dihydroquinazolin-2-yl)ethyl)amino)pyrimidine-5-carbonitrile] | 61 | – |
| Cc1ccccc1S(=O)(=O)c1cccc2nc([C@H](C)Nc3nc(N)nc(N)c3C#N)n(-c3cccc(F)c3)c(=O)c12 [Compound 81, (S)-2,4-diamino-6-((1-(3-(3-fluorophenyl)-4-oxo-5-(o-tolylsulfonyl)-3,4-dihydroquinazolin-2-yl)ethyl)amino)pyrimidine-5-carbonitrile] | 6 | – |
| C[C@H](Nc1nc(N)nc(N)c1C#N)c1nc2cccc(S(=O)(=O)CCN3CCCC3)c2c(=O)n1-c1cccc(F)c1 [Compound 82, (S)-2,4-diamino-6-((1-(3-(3-fluorophenyl)-4-oxo-5-((2-(pyrrolidin-1-yl)ethyl)sulfonyl)-3,4-dihydroquinazolin-2-yl)ethyl)amino)pyrimidine-5-carbonitrile] | 2 | – |
| N#Cc1c(N)nc(N)nc1N1CCC[C@H]1c1nc2cccc(Cl)c2c(=O)n1-c1cc(F)cc(F)c1 [Compound 83, (S)-2,4-diamino-6-(2-(5-chloro-3-(3,5-difluorophenyl)-4-oxo-3,4-dihydroquinazolin-2-yl)pyrrolidin-1-yl)pyrimidine-5-carbonitrile] | 2 | – |
| Cc1ccc(Cl)c2c(=O)n(-c3cc(F)cc(F)c3)c([C@@H]3CCCN3c3nc(N)nc(N)c3C#N)nc12 [Compound 84, (S)-2,4-diamino-6-(2-(5-chloro-3-(3,5-difluorophenyl)-8-methyl-4-oxo-3,4-dihydroquinazolin-2-yl)pyrrolidin-1-yl)pyrimidine-5-carbonitrile] | 4 | – |
| N#Cc1c(N)nc(N)nc1N1CCC[C@H]1c1nc2c(Cl)cccc2c(=O)n1-c1cc(F)cc(F)c1 [Compound 85, (S)-2,4-diamino-6-(2-(8-chloro-3-(3,5-difluorophenyl)-4-oxo-3,4-dihydroquinazolin-2-yl)pyrrolidin-1-yl)pyrimidine-5-carbonitrile] | 10 | – |
| Cc1cccc2c(=O)n(-c3cc(F)cc(F)c3)c([C@@H]3CCCN3c3nc(N)nc(N)c3C#N)nc12 [Compound 86, (S)-2,4-diamino-6-(2-(3-(3,5-difluorophenyl)-8-methyl-4-oxo-3,4-dihydroquinazolin-2-yl)pyrrolidin-1-yl)pyrimidine-5-carbonitrile] | 12 | – |
| N#Cc1c(N)nc(N)nc1N1CCC[C@H]1c1nc2cccc(F)c2c(=O)n1-c1cc(F)cc(F)c1 [Compound 87, (S)-2,4-diamino-6-(2-(3-(3,5-difluorophenyl)-5-fluoro-4-oxo-3,4-dihydroquinazolin-2-yl)pyrrolidin-1-yl)pyrimidine-5-carbonitrile] | 23 | – |
| N#Cc1cc(F)cc(-n2c([C@@H]3CCCN3c3nc(N)nc(N)c3C#N)nc3cccc(Cl)c3c2=O)c1 [Compound 88, (S)-2,4-diamino-6-(2-(5-chloro-3-(3-cyano-5-fluorophenyl)-4-oxo-3,4-dihydroquinazolin-2-yl)pyrrolidin-1-yl)pyrimidine-5-carbonitrile] | 17 | – |
| N#Cc1c(N)nc(N)nc1N1CCC[C@H]1c1nc2cccc(C#N)c2c(=O)n1-c1ccccc1 [Compound 89, (S)-2-(1-(2,6-diamino-5-cyanopyrimidin-4-yl)pyrrolidin-2-yl)-4-oxo-3-phenyl-3,4-dihydroquinazoline-5-carbonitrile] | 2 | – |
| N#Cc1c(N)nc(N)nc1N1CCC[C@H]1c1nc2c(C#N)cccc2c(=O)n1-c1cccc(C(F)F)c1 [Compound 90, (S)-2-(1-(2,6-diamino-5-cyanopyrimidin-4-yl)pyrrolidin-2-yl)-3-(3-(difluoromethyl)phenyl)-4-oxo-3,4-dihydroquinazoline-8-carbonitrile] | 5 | – |
| N#Cc1c(N)nc(N)nc1N1CCC[C@H]1c1nc2c(Cl)ccc(Cl)c2c(=O)n1-c1cccc(S(N)(=O)=O)c1 [Compound 91, (S)-3-(5,8-dichloro-2-(1-(2,6-diamino-5-cyanopyrimidin-4-yl)pyrrolidin-2-yl)-4-oxoquinazolin-3(4H)-yl)benzenesulfonamide] | 17 | – |
| C[C@H](Nc1nc(N)nc(N)c1C#N)c1nc2cccc(C3=CCNCC3)c2c(=O)n1-c1ccccc1 [Compound 93, (S)-2,4-diamino-6-((1-(4-oxo-3-phenyl-5-(1,2,3,6-tetrahydropyridin-4-yl)-3,4-dihydroquinazolin-2-yl)ethyl)amino)pyrimidine-5-carbonitrile] | 17 | – |
| C[C@@H]1C[C@@H](c2nc3cccc(Cl)c3c(=O)n2-c2ccccc2)N(c2nc(N)nc(N)c2C#N)C1 [Compound 94, 2,4-diamino-6-((2S,4R)-2-(5-chloro-4-oxo-3-phenyl-3,4-dihydroquinazolin-2-yl)-4-methylpyrrolidin-1-yl)pyrimidine-5-carbonitrile] | 2 | – |
| N#Cc1c(N)nc(N)nc1N1C[C@H](F)C[C@H]1c1nc2cccc(Cl)c2c(=O)n1-c1cc(F)cc(F)c1 [Compound 95, 2,4-diamino-6-((2S,4R)-2-(5-chloro-3-(3,5-difluorophenyl)-4-oxo-3,4-dihydroquinazolin-2-yl)-4-fluoropyrrolidin-1-yl)pyrimidine-5-carbonitrile] | 160 | – |
| Cc1nc(N)nc(N[C@@H](C)c2nc3cccc(Cl)c3c(=O)n2-c2ccccc2)c1C#N [Compound 96, (S)-2-amino-4-((1-(5-chloro-4-oxo-3-phenyl-3,4-dihydroquinazolin-2-yl)ethyl)amino)-6-methylpyrimidine-5-carbonitrile] | 0.1 | – |
| Cc1nc(N)nc(N[C@@H](C)c2nc3cccc(Cl)c3c(=O)n2-c2ccccc2)c1I [Compound 97, (S)-2-(1-((2-amino-5-iodo-6-methylpyrimidin-4-yl)amino)ethyl)-5-chloro-3-phenylquinazolin-4(3H)-one] | 0.6 | – |
| Cc1nc(N)c(C#N)c(N[C@@H](C)c2nc3cccc(Cl)c3c(=O)n2-c2ccccc2)n1 [Compound 98, (S)-4-amino-6-((1-(5-chloro-4-oxo-3-phenyl-3,4-dihydroquinazolin-2-yl)ethyl)amino)-2-methylpyrimidine-5-carbonitrile] | 10 | – |
| Nc1nc(N)c(Cl)c(N2CCOC[C@H]2c2nc3cccc(Cl)c3c(=O)n2-c2ccccc2)n1 [Compound 100, (R)-5-chloro-2-(4-(2,6-diamino-5-chloropyrimidin-4-yl)morpholin-3-yl)-3-phenylquinazolin-4(3H)-one] | 8400 | – |
| C[C@H](Nc1nc(N)nc(Cl)c1C#N)c1nc2cccc(Cl)c2c(=O)n1-c1ccccc1 [Compound 101, (S)-2-amino-4-chloro-6-((1-(5-chloro-4-oxo-3-phenyl-3,4-dihydroquinazolin-2-yl)ethyl)amino)pyrimidine-5-carbonitrile] | 1 | – |
| C[C@H](Nc1nc(N)nc(Cl)c1C#N)c1nc2cccc(F)c2c(=O)n1-c1cc(F)cc(F)c1 [Compound 102, (S)-2-amino-4-chloro-6-((1-(3-(3,5-difluorophenyl)-5-chloro-4-oxo-3-phenyl-3,4-dihydroquinazolin-2-yl)ethyl)amino)pyrimidine-5-carbonitrile] | – | IC50 (IC50 (nM) for PI3K isoform δ (Table 3), TR-FRET, 2× Km ATP, 2 μM PIP2, incubated for 30 minutes at 25° C.): 30 nM |
